For one experiment, the target named is T1, B2R F286A (Homo sapiens, UniProt P30411, F286A).
T1 construct: expressed in transfected cells; host or cells: CHO cells
Put plainly: Calcium mobilization, CHO cells, B2R F286A. In kind it is cell-based. How it is done:
(§1) CHO cells transfected with wild-type or mutated B2R and wild-type or mutated Gq were seeded into 96-well black plates at a density of 30,000 cells per well and incubated for 24 h. Then cells were loaded with reagents from Calcium-5 Assay Kit (Molecular Devices) for 45 min at 37 °C in 5% CO2 according to the manufacturer’s protocol. […] Data were analyzed by GraphPad Prism 5 and presented as Mean ± S.E.M. from three independent experiments.
(§2) Supplementary Table 3. […] Emax and
(§3) pEC50 values were presented as Mean±S.E.M. from three independent experiments.
(§4) NA represented not available. Source data are provided as a Source Data file.

A further experiment has as its target T2, B2R R297A (Homo sapiens, UniProt P30411, R297A).
T2 construct: expressed in transfected cells; host or cells: CHO cells
Put plainly: Calcium mobilization, CHO cells, B2R R297A. In kind it is cell-based. The protocol: as §1, §2, §3, §4
In general terms: A change in cytosolic calcium serves as a functional read-out for many receptors and channels.

A further experiment deals with T3, B2R I213A (Homo sapiens, UniProt P30411, I213A).
T3 construct: expressed in transfected cells; host or cells: CHO cells
In words: Calcium mobilization, CHO cells, B2R I213A. In kind it is cell-based. The protocol:
as §1, §2, §3, §4

The next experiment concerns the target T4, B2R W113A (Homo sapiens, UniProt P30411, W113A).
T4 construct: expressed in transfected cells; host or cells: CHO cells
In words: Calcium mobilization, CHO cells, B2R W113A. Format: cell-based. How it is done: as §1, §2, §3, §4

The target in experiment [1] is T5, CryoEM B2R (MBP fusion) with CryoEM Gq (R183Q, Q209L) (Homo sapiens, UniProt P30411).
T5 construct: HA tag (N); 10xHis tag + TEV site (N); expressed in transfected cells; host or cells: CHO cells
T5 sequence (P30411 29-391): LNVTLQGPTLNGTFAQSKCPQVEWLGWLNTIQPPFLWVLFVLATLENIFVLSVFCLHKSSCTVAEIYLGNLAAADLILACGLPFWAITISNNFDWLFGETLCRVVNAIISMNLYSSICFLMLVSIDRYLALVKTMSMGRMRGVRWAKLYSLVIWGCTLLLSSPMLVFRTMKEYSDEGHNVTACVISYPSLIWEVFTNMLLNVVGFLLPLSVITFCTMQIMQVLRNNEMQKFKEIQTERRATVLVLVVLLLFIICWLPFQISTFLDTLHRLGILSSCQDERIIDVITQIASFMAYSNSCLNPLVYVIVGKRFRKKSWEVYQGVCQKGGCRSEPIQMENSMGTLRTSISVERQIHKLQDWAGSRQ
T5 sequence (P50148 1-359 R183Q/Q209L partner): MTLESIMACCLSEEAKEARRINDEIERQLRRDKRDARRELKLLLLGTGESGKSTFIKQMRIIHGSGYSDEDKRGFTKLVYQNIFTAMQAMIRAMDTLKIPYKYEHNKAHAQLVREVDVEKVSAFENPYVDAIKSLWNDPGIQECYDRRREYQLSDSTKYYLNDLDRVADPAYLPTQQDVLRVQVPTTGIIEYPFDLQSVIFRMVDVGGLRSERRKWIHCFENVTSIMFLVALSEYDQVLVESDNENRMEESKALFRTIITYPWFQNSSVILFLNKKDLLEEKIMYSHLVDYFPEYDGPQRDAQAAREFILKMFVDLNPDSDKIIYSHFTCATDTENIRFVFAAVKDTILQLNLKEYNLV
In words: Calcium mobilization, CHO cells, CryoEM-B2R & CryoEM-Gq. In kind it is cell-based. To be noted: kallidin-induced calcium mobilization, Mean±S.E.M. from three independent experiments. How it is done:
(§5) There was a 10xHis tag at the N-terminus of each subunit.
as §1
(§6) Supplementary Table 1 . Calcium mobilization results of WT and mutated
(§7) constructs. Emax and pEC50 values were presented as Mean±S.E.M. from three
(§8) independent experiments. Source data are provided as a Source Data file.

The target of another experiment is T6, B2R Q315A (Homo sapiens, UniProt P30411, Q315A).
T6 construct: expressed in transfected cells; host or cells: CHO cells
In words: Calcium mobilization, CHO cells, B2R Q315A. Format: cell-based. How it is done: as §1, §2, §3, §4

A further experiment has as its target T7, B2R S289A (Homo sapiens, UniProt P30411, S289A).
T7 construct: expressed in transfected cells; host or cells: CHO cells
Put plainly: Calcium mobilization, CHO cells, B2R S289A. In kind it is cell-based. The protocol: as §1, §2, §3, §4

Experiment [2] has as its target T8, wild-type human B2R with CryoEM Gq (R183Q, Q209L) (Homo sapiens, UniProt P30411).
T8 construct: expressed in transfected cells; host or cells: CHO cells
T8 sequence (P30411 1-391): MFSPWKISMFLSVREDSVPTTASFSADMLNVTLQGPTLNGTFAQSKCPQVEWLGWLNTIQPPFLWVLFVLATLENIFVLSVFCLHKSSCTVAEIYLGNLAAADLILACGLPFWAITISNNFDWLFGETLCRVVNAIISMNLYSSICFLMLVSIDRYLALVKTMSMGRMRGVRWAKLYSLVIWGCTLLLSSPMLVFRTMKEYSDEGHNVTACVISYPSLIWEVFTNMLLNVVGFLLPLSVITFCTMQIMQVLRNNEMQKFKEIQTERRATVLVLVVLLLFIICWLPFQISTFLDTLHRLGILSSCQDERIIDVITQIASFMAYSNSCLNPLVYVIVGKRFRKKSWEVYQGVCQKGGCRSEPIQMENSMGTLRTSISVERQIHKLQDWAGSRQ
In words: Calcium mobilization, CHO cells, WT-B2R & CryoEM-Gq. In kind it is cell-based. To be noted: kallidin-induced calcium mobilization, Mean±S.E.M. from three independent experiments. How it is done: as §5, §1, §6, §7, §8

The target in another experiment is T9, B2R E204A (Homo sapiens, UniProt P30411, E204A).
T9 construct: expressed in transfected cells; host or cells: CHO cells
Put plainly: Calcium mobilization, CHO cells, B2R E204A. In kind it is cell-based. How it is done: as §1, §2, §3, §4

The target of another experiment is T10, B2R D293A (Homo sapiens, UniProt P30411, D293A).
T10 construct: expressed in transfected cells; host or cells: CHO cells
Put plainly: Calcium mobilization, CHO cells, B2R D293A. In kind it is cell-based. The protocol: as §1, §2, §3, §4

A further experiment concerns the target T11, B2R F121A (Homo sapiens, UniProt P30411, F121A).
T11 construct: expressed in transfected cells; host or cells: CHO cells
In words: Calcium mobilization, CHO cells, B2R F121A. In kind it is cell-based. How it is done: as §1, §2, §3, §4

The target of experiment [3] is T12, wild-type human B2R with wild-type Gq (Homo sapiens, UniProt P30411).
T12 construct: expressed in transfected cells; host or cells: CHO cells
In words: Calcium mobilization, CHO cells, WT-B2R & WT-Gq (Calcium-5 kit, Flexstation 3, ex 485/em 525 nm). To be noted: kallidin-induced calcium mobilization, Mean±S.E.M. from three independent experiments. In kind it is cell-based. How it is done:
as §1
Supplementary Table 1 . Calcium mobilization results of WT and mutated constructs. Emax and pEC50 values were presented as Mean±S.E.M. from three independent experiments. Source data are provided as a Source Data file.
Supplementary Table 3. […] Emax and […]
as §3, §4

A further experiment addresses T13, B2R D311A (Homo sapiens, UniProt P30411, D311A).
T13 construct: expressed in transfected cells; host or cells: CHO cells
Put plainly: Calcium mobilization, CHO cells, B2R D311A. In kind it is cell-based. How it is done:
as §1, §2, §3, §4

A further experiment has as its target T14, B2R T290A (Homo sapiens, UniProt P30411, T290A).
T14 construct: expressed in transfected cells; host or cells: CHO cells
Put plainly: Calcium mobilization, CHO cells, B2R T290A. Format: cell-based. The protocol:
as §1, §2, §3, §4

In another experiment the target is T15, B2R Y201A (Homo sapiens, UniProt P30411, Y201A).
T15 construct: expressed in transfected cells; host or cells: CHO cells
In words: Calcium mobilization, CHO cells, B2R Y201A. In kind it is cell-based. The protocol:
as §1, §2, §3, §4

The next experiment concerns the target T16, B2R Y322A (Homo sapiens, UniProt P30411, Y322A).
T16 construct: expressed in transfected cells; host or cells: CHO cells
In words: Calcium mobilization, CHO cells, B2R Y322A. In kind it is cell-based. The protocol: as §1, §2, §3, §4

Another experiment has as its system B2R. To be noted: cited from earlier work. An excerpt: The kallikrein-kinin system (KKS) consists of kininogens, kallikrein enzymes, kinins, type 1 and type 2 bradykinin receptors (B1R and B2R), which plays important roles in vasodilation, inflammation, vascular permeability, cardioprotection, coagulation, and pain[1]–[4]. Kinins are short-lived peptides of various lengths and they are produced by enzymatic hydrolysis of precursor kininogens. […] Both kinins ...

T13 sequence (P30411 whole entry D311A): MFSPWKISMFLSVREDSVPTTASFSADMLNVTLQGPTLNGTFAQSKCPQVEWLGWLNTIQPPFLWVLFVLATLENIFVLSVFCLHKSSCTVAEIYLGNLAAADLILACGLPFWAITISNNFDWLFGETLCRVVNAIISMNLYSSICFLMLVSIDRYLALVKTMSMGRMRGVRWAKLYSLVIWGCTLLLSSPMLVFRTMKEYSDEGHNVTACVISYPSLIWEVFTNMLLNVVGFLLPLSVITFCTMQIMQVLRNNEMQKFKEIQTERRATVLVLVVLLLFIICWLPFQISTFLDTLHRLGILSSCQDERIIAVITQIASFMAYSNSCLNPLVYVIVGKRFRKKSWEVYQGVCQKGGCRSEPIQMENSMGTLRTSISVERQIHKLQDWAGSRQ
T13 sequence (P50148 whole entry partner): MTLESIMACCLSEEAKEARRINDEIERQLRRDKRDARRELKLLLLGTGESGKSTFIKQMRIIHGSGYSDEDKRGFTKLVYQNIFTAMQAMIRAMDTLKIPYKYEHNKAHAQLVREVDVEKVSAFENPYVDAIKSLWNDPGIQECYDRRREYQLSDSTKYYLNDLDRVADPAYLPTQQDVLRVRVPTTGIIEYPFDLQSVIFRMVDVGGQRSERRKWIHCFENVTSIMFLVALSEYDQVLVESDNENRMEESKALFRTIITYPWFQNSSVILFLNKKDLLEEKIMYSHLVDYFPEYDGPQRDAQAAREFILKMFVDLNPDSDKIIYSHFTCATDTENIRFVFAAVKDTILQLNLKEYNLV
T13 sequence (P62873 2-340 partner limits assumed): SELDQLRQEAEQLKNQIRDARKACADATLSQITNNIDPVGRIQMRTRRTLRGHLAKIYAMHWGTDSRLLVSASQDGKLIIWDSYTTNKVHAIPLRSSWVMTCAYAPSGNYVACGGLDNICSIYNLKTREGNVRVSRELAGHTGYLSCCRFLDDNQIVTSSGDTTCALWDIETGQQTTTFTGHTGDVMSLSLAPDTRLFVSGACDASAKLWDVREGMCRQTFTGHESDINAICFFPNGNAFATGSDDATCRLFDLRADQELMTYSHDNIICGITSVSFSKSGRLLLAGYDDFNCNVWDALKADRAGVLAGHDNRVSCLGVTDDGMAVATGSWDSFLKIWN
T13 sequence (P59768 2-68 partner limits assumed): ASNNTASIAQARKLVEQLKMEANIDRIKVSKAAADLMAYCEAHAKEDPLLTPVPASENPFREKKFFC
T3 sequence (P30411 whole entry I213A): as the sequence (P30411 whole entry D311A) above, with I213A, A311D counted along it
T3 sequence (P50148 whole entry partner): as the sequence (P50148 whole entry partner) above
T3 sequence (P62873 2-340 partner limits assumed): as the sequence (P62873 2-340 partner limits assumed) above
T3 sequence (P59768 2-68 partner limits assumed): as the sequence (P59768 2-68 partner limits assumed) above
T2 sequence (P30411 whole entry R297A): as the sequence (P30411 whole entry D311A) above, with R297A, A311D counted along it
T2 sequence (P50148 whole entry partner): as the sequence (P50148 whole entry partner) above
T2 sequence (P62873 2-340 partner limits assumed): as the sequence (P62873 2-340 partner limits assumed) above
T2 sequence (P59768 2-68 partner limits assumed): as the sequence (P59768 2-68 partner limits assumed) above
T16 sequence (P30411 whole entry Y322A): as the sequence (P30411 whole entry D311A) above, with A311D, Y322A counted along it
T16 sequence (P50148 whole entry partner): as the sequence (P50148 whole entry partner) above
T16 sequence (P62873 2-340 partner limits assumed): as the sequence (P62873 2-340 partner limits assumed) above
T16 sequence (P59768 2-68 partner limits assumed): as the sequence (P59768 2-68 partner limits assumed) above

`NCCCC[C@H](N)C(=O)N[C@@H](CCCN=C(N)N)C(=O)N1CCC[C@H]1C(=O)N1CCC[C@H]1C(=O)NCC(=O)N[C@@H](Cc1ccccc1)C(=O)N[C@@H](CO)C(=O)N1CCC[C@H]1C(=O)N[C@@H](Cc1ccccc1)C(=O)N[C@@H](CCCN=C(N)N)C(=O)O` [kallidin]: the EC50 at B2R F286A was 112 nM; at B2R R297A, 1.62 nM; at B2R I213A it was 110 nM; at B2R W113A, 1050 nM; in [1] it was 6.67 nM; at B2R Q315A, 66.7 nM. Moreover, the EC50 on B2R S289A is 1.38 nM; in [2], 2.39 nM; at B2R E204A, 13 nM; at B2R D293A it was 5.38 nM; at B2R F121A it was 774 nM; in [3], 0.753 nM. In addition, the EC50 is 16.7 nM at B2R D311A, 23.7 nM at B2R T290A, 92.9 nM at B2R Y201A and 21.5 nM on B2R Y322A.

Turning to “D-Arg-Arg-Pro-Hyp-Gly-Thi-Ser-D-Tic-Oic-Arg [icatibant]”, the “antagonist class at B2R” value in the experiment on B2R is “B2R selective antagonist”.

In general, EC50 refers to the concentration that produces a half-maximal response.

(Values after publication PMC8821558, “Cryo-EM structures of human bradykinin receptor-Gq proteins complexes” (Nature Communications, 2022).)
